Test results published in patent publication US20240409585A1, “MACROCYCLIC IMMUNOMODULATORS” (priority 2021, published 2024).
Bridge positions count the residues as written; N and C are the ends. Square brackets hold non-standard residues; d marks the D form. Peptide text beside a SMILES is read from it. * marks the point of attachment. Phe(4-COOH) = N[C@@H](Cc1ccc(C(=O)O)cc1)C(=O)O; Bip = N[C@@H](Cc1ccc(-c2ccccc2)cc1)C(=O)O; Phe(3-CN) = N#Cc1cccc(C[C@H](N)C(=O)O)c1; Phe(3-Cl) = N[C@@H](Cc1cccc(Cl)c1)C(=O)O; Phe(3-OMe) = COc1cccc(C[C@H](N)C(=O)O)c1; Phe(4-CN) = N#Cc1ccc(C[C@H](N)C(=O)O)cc1; Phe(2-F) = N[C@@H](Cc1ccccc1F)C(=O)O; 4Pal = N[C@@H](Cc1ccncc1)C(=O)O; Cit = NC(=O)NCCC[C@H](N)C(=O)O; Carboxymethyl = O=C(O)C*; NMeA = CN[C@@H](C)C(=O)O; Dab = NCC[C@H](N)C(=O)O; Dap = NC[C@H](N)C(=O)O

target: T1, PE-labeled human PD-L1-Ig binding to Jurkat cell line over-expressing human PD-1 (Jurkat-PD-1) (Homo sapiens, UniProt Q15116); assay: Jurkat-PD-1 Cell Binding High-Content Screening Assay (CBA): Method 1; conditions: Jurkat-hPD-1 cells, PE-labeled PD-L1-Ig 20 nM final; read-out: Jurkat HPDL1 PD1 IC50 (uM) (Method 1)
T1 construct: expressed in transfected cells; host or cells: Jurkat
T1 sequence (Q15116 25-288): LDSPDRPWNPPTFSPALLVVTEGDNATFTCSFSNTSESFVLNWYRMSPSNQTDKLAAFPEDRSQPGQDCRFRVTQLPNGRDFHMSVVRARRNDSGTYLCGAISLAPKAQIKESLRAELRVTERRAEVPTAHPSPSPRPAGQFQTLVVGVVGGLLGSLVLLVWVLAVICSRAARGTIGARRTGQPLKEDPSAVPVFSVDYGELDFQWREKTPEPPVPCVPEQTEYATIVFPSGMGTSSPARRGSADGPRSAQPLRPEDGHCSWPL

| SMILES | IC50 [µM] |
| --- | --- |
| CC(C)C[C@@H]1NC(=O)[C@H](CCN)NC(=O)[C@@H](CC(C)C)NC(=O)[C@H](C)N(C)C(=O)[C@H](C(C)C)NC(=O)[C@H](Cc2ccc(-c3ccccc3)cc2)NC(=O)[C@H](C(C)C)NC(=O)[C@H](Cc2c[nH]c3ccccc23)NC(=O)[C@H](CC(=O)O)NC(=O)[C@H](Cc2cccc(Cl)c2)NC(=O)[C@H](CN)NC(=O)CSC[C@@H](C(=O)N[C@@H](C)C(N)=O)NC(=O)[C@H]([C@@H](C)O)NC(=O)[C@H](C(C)C)NC1=O [Compound 1441] ({CH2CO}-[Dap][Phe(3-Cl)]DWV[Bip]V[NMeA][dL][Dab]LVTCA-NH2; thioether N-14) | 0.09 |
| CC(C)C[C@@H]1NC(=O)[C@H](CCN)NC(=O)[C@@H](CC(C)C)NC(=O)[C@H](C)N(C)C(=O)[C@H](CCCNC(=N)N)NC(=O)[C@H](Cc2ccc(-c3ccccc3)cc2)NC(=O)[C@H](C(C)C)NC(=O)[C@H](Cc2c[nH]c3ccccc23)NC(=O)[C@H](CC(=O)O)NC(=O)[C@H](Cc2ccc(C#N)cc2)NC(=O)[C@H](CN)NC(=O)CSC[C@@H](C(=O)N[C@@H](C)C(N)=O)NC(=O)[C@H]([C@@H](C)O)NC(=O)[C@H](C(C)C)NC1=O [Compound 1444] ({CH2CO}-[Dap][Phe(4-CN)]DWV[Bip]R[NMeA][dL][Dab]LVTCA-NH2; thioether N-14) | 0.08 |
| CC(C)C[C@@H]1NC(=O)[C@H](CCN)NC(=O)[C@@H](CC(C)C)NC(=O)[C@H](C)N(C)C(=O)[C@H](CCCNC(=N)N)NC(=O)[C@H](Cc2ccc(-c3ccccc3)cc2)NC(=O)[C@H](C(C)C)NC(=O)[C@H](Cc2c[nH]c3ccccc23)NC(=O)[C@H](CC(=O)O)NC(=O)[C@H](Cc2cccc(Cl)c2)NC(=O)[C@H](CN)NC(=O)CSC[C@@H](C(=O)N[C@@H](C)C(N)=O)NC(=O)[C@H]([C@@H](C)O)NC(=O)[C@H](C(C)C)NC1=O [Compound 1445] ({CH2CO}-[Dap][Phe(3-Cl)]DWV[Bip]R[NMeA][dL][Dab]LVTCA-NH2; thioether N-14) | 0.11 |
| CC(C)C[C@@H]1NC(=O)[C@H](CCN)NC(=O)[C@@H](CC(C)C)NC(=O)[C@H](C)N(C)C(=O)[C@H](CCCNC(=N)N)NC(=O)[C@H](Cc2ccc(-c3ccccc3)cc2)NC(=O)[C@H](C(C)C)NC(=O)[C@H](Cc2c[nH]c3ccccc23)NC(=O)[C@H](CC(=O)O)NC(=O)[C@H](Cc2ccc(C#N)cc2)NC(=O)[C@H](Cc2ccncc2)NC(=O)CSC[C@@H](C(=O)N[C@@H](C)C(N)=O)NC(=O)[C@H]([C@@H](C)O)NC(=O)[C@H](C(C)C)NC1=O [Compound 1446] ({CH2CO}-[4Pal][Phe(4-CN)]DWV[Bip]R[NMeA][dL][Dab]LVTCA-NH2; thioether N-14) | 0.08 |
| CC(C)C[C@@H]1NC(=O)[C@H](CCN)NC(=O)[C@@H](CC(C)C)NC(=O)[C@H](C)N(C)C(=O)[C@H](CCCNC(=N)N)NC(=O)[C@H](Cc2ccc(-c3ccccc3)cc2)NC(=O)[C@H](C(C)C)NC(=O)[C@H](Cc2cccc(C#N)c2)NC(=O)[C@H](CC(=O)O)NC(=O)[C@H](Cc2ccc(OCC(=O)O)cc2)NC(=O)[C@H](CN)NC(=O)CSC[C@@H](C(=O)N[C@@H](C)C(N)=O)NC(=O)[C@H]([C@@H](C)O)NC(=O)[C@H](C(C)C)NC1=O [Compound 1449] ({CH2CO}-[Dap]Y(Carboxymethyl)D[Phe(3-CN)]V[Bip]R[NMeA][dL][Dab]LVTCA-NH2; thioether N-14) | 0.17 |
| CC(C)C[C@@H]1NC(=O)[C@H](CCN)NC(=O)[C@@H](CC(C)C)NC(=O)[C@H](C)N(C)C(=O)[C@H](CCCNC(=N)N)NC(=O)[C@H](Cc2ccc(-c3ccccc3)cc2)NC(=O)[C@H](C(C)C)NC(=O)[C@H](Cc2c[nH]c3ccccc23)NC(=O)[C@H](CC(=O)O)NC(=O)[C@H](Cc2ccc(C(=O)O)cc2)NC(=O)[C@H](CN)NC(=O)CSC[C@@H](C(=O)N[C@@H](C)C(N)=O)NC(=O)[C@H]([C@@H](C)O)NC(=O)[C@H](C(C)C)NC1=O [Compound 1451] ({CH2CO}-[Dap][Phe(4-COOH)]DWV[Bip]R[NMeA][dL][Dab]LVTCA-NH2; thioether N-14) | 0.08 |

Stronger by IC50, values ahead:

| IC50 [µM] | SMILES |
| --- | --- |
| 0.03 | CC(C)C[C@@H]1NC(=O)[C@H](CCN)NC(=O)[C@@H](CC(C)C)NC(=O)[C@H](C)N(C)C(=O)[C@H](C(C)C)NC(=O)[C@H](Cc2ccc(-c3ccccc3)cc2)NC(=O)[C@H](C(C)C)NC(=O)[C@H](Cc2c[nH]c3ccccc23)NC(=O)[C@H](CC(=O)O)NC(=O)[C@H](Cc2ccccc2F)NC(=O)[C@H](CN)NC(=O)CSC[C@@H](C(=O)N[C@@H](C)C(N)=O)NC(=O)[C@H]([C@@H](C)O)NC(=O)[C@H](C(C)C)NC1=O [Compound 1442] ({CH2CO}-[Dap][Phe(2-F)]DWV[Bip]V[NMeA][dL][Dab]LVTCA-NH2; thioether N-14) |
| 0.01 | CC(C)C[C@@H]1NC(=O)[C@H](CCN)NC(=O)[C@@H](CC(C)C)NC(=O)[C@H](C)N(C)C(=O)[C@H](CCCNC(=N)N)NC(=O)[C@H](Cc2ccc(-c3ccccc3)cc2)NC(=O)[C@H](C(C)C)NC(=O)[C@H](Cc2c[nH]c3ccccc23)NC(=O)[C@H](CC(=O)O)NC(=O)[C@H](Cc2ccc(OCC(=O)O)cc2)NC(=O)[C@H](Cc2ccncc2)NC(=O)CSC[C@@H](C(=O)N[C@@H](C)C(N)=O)NC(=O)[C@H]([C@@H](C)O)NC(=O)[C@H](C(C)C)NC1=O [Compound 1443] ({CH2CO}-[4Pal]Y(Carboxymethyl)DWV[Bip]R[NMeA][dL][Dab]LVTCA-NH2; thioether N-14) |
| 0.03 | CC(C)C[C@@H]1NC(=O)[C@H](CCN)NC(=O)[C@@H](CC(C)C)NC(=O)[C@H](C)N(C)C(=O)[C@H](C(C)C)NC(=O)[C@H](Cc2ccc(-c3ccccc3)cc2)NC(=O)[C@H](C(C)C)NC(=O)[C@H](Cc2c[nH]c3ccccc23)NC(=O)[C@H](CC(=O)O)NC(=O)[C@H](Cc2ccc(OCC(=O)O)cc2)NC(=O)[C@H](CN)NC(=O)CSC[C@@H](C(=O)N[C@@H](C)C(N)=O)NC(=O)[C@H]([C@@H](C)O)NC(=O)[C@H](C(C)C)NC1=O [Compound 1447] ({CH2CO}-[Dap]Y(Carboxymethyl)DWV[Bip]V[NMeA][dL][Dab]LVTCA-NH2; thioether N-14) |
| 0.06 | COc1cccc(C[C@@H]2NC(=O)[C@H](CC(=O)O)NC(=O)[C@H](Cc3ccc(OCC(=O)O)cc3)NC(=O)[C@H](CN)NC(=O)CSC[C@@H](C(=O)N[C@@H](C)C(N)=O)NC(=O)[C@H]([C@@H](C)O)NC(=O)[C@H](C(C)C)NC(=O)[C@H](CC(C)C)NC(=O)[C@H](CCN)NC(=O)[C@@H](CC(C)C)NC(=O)[C@H](C)N(C)C(=O)[C@H](CCCNC(N)=O)NC(=O)[C@H](Cc3ccc(-c4ccccc4)cc3)NC(=O)[C@H](C(C)C)NC2=O)c1 [Compound 1448] ({CH2CO}-[Dap]Y(Carboxymethyl)D[Phe(3-OMe)]V[Bip][Cit][NMeA][dL][Dab]LVTCA-NH2; thioether N-14) |
| 0.06 | CC(C)C[C@@H]1NC(=O)[C@H](CCN)NC(=O)[C@@H](CC(C)C)NC(=O)[C@H](C)N(C)C(=O)[C@H](CCCNC(=N)N)NC(=O)[C@H](Cc2ccc(-c3ccccc3)cc2)NC(=O)[C@H](C(C)C)NC(=O)[C@H](Cc2c[nH]c3ccccc23)NC(=O)[C@H](CC(=O)O)NC(=O)[C@H](Cc2ccc(OCC(=O)O)cc2)NC(=O)[C@H](CN)NC(=O)CSC[C@@H](C(=O)N[C@@H](C)C(N)=O)NC(=O)[C@H]([C@@H](C)O)NC(=O)[C@H](C(C)C)NC1=O [Compound 1450] ({CH2CO}-[Dap]Y(Carboxymethyl)DWV[Bip]R[NMeA][dL][Dab]LVTCA-NH2; thioether N-14) |
